Results published in patent US6359006B2, “Amphiphilic fluorine derivatives with telomeric structures; preparation procedure and biomedical applications” (Alliance Pharmaceutical Corp., priority 1990, dated 2002).

Test: Solubility
Format: physicochemical

solubility in organic solvents (in words) (organic solvents such as AcOEt, CH3CN, CH3OH, CHCl3): soluble in organic solvents
solubility in water (in words) (water): insoluble in water
SMILES: O=C(CCSCCC(F)(F)C(F)(F)C(F)(F)C(F)(F)C(F)(F)C(F)(F)F)NC(CO)(CO)CO [monoadduct 14, N-[(trihydrozymethyl)methyl]4-thia-6-(n-perfluorohezyl) hexanamide]
